In patent US20170057954A1, “SUBSTITUTED IMIDAZO[1,2-A]PYRIDINECARBOXAMIDES AND THEIR USE” (Bayer Pharma Aktiengesellschaft, priority 2014, published 2017):

What follows are compounds tested on recombinant guanylate cyclase reporter cell line (assay: Effect on a recombinant guanylate cyclase reporter cell line). Details: in some cases mean values for individual determinations, read-out: MEC (minimum effective concentration).
Type: cell-based
Experimental: B-2. Effect on a Recombinant Guanylate Cyclase Reporter Cell Line
The cellular activity of the compounds according to the invention is determined using a recombinant guanylate cyclase reporter cell line, as described in F. Wunder et al., Anal. Biochem. 339, 104-112 (2005).
Representative MEC values (MEC=minimum effective concentration) for the compounds of the invention are shown in the table below (in some cases as mean values for individual determinations): […]

SMILES	minimal effective concentration [µM]
Cc1cc(OCc2c(F)cccc2F)c2nc(C)c(C(=O)NOC(C)c3ccccc3)n2c1 (racemic) [Example 78, rac-8-[(2,6-Difluorobenzyl)oxy]-2,6-dimethyl-N-(1-phenylethoxy)imidazo[1,2-a]pyridine-3-carboxamide]	1
Cc1cc(OCc2c(F)cccc2F)c2nc(C)c(C(=O)NOCCO)n2c1 [Example 1, 8-[(2,6-Difluorobenzyl)oxy]-N-(2-hydroxyethoxy)-2,6-dimethylimidazo[1,2-a]pyridine-3-carboxamide]	0.3
Cc1cc(OCc2c(F)cccc2F)c2nc(C)c(C(=O)NOCCN(C)C)n2c1 [Example 2]	1
Cc1cc(OCc2c(F)cccc2F)c2nc(C)c(C(=O)NOCC(=O)NCc3ccc(Cl)cc3)n2c1 [Example 4]	3
Cc1cc(OCc2c(F)cccc2F)c2nc(C)c(C(=O)NOCC(=O)N3CCN(c4ccccc4)CC3)n2c1 [Example 5]	10
Cc1cc(OCc2c(F)cccc2F)c2nc(C)c(C(=O)NOC3COC3)n2c1 [Example 6]	1
Cc1cc(OCc2c(F)cccc2F)c2nc(C)c(C(=O)NOCCN)n2c1 [Example 7, N-(2-Aminoethoxy)-8-[(2,6-difluorobenzyl)oxy]-2,6-dimethylimidazo[1,2-a]pyridine-3-carboxamide hydrate]	1
Cc1cc(OCc2c(F)cccc2F)c2nc(C)c(C(=O)NOCC3CCCN3)n2c1 (stereo not shown) [Example 8]	3
Cc1cc(OCc2c(F)cccc2F)c2nc(C)c(C(=O)NOCC(N)C(C)C)n2c1 (stereo not shown) [Example 9]	1
Cc1cc(OCc2c(F)cccc2F)c2nc(C)c(C(=O)NOC[C@H](O)CO)n2c1 [Example 11, 8-[(2,6-Difluorobenzyl)oxy]-N-{[(2R)-2,3-dihydroxypropyl]oxy}-2,6-dimethylimidazo[1,2-a]pyridine-3-carboxamide]	1
Cc1cc(OCc2c(F)ccc(F)c2F)c2nc(C)c(C(=O)NN3CCOCC3)n2c1 [Example 12, 2,6-Dimethyl-N-(morpholin-4-yl)-8-[(2,3,6-trifluorobenzyl)oxy]imidazo[1,2-a]pyridine-3-carboxamide]	1
Cc1cc(OC(C)c2c(F)cccc2F)c2nc(C)c(C(=O)NOCCO)n2c1 (stereo not shown) [Example 13]	10
O=C(NOCCO)c1cnc2c(OCc3c(F)cccc3F)cccn12 [Example 14]	10
Cc1nc2c(OCC3CCCCC3)cccn2c1C(=O)NN1CCOCC1 [Example 15]	1
CCCc1nc2c(OCc3c(F)cccc3F)cc(C)cn2c1C(=O)NN1CCOCC1 [Example 17]	10
CCc1nc2c(OCc3c(F)cccc3F)cc(C)cn2c1C(=O)NN1CCOCC1 [Example 20]	1
COc1cc(OCc2c(F)cccc2F)c2nc(C)c(C(=O)NN3CCOCC3)n2c1 [Example 21]	3
O=C(NN1CCOCC1)c1cnc2c(OCc3c(F)cccc3F)cccn12 [Example 23]	10
COc1ccc(F)c(COc2cc(C)cn3c(C(=O)NN4CCOCC4)c(C)nc23)c1F [Example 25]	10
Cc1cc(OCc2c(F)ccc(C3CC3)c2F)c2nc(C)c(C(=O)NN3CCOCC3)n2c1 [Example 26]	10
Cc1cc(OCc2c(F)cccc2F)c2nc(C)c(C(=O)NNCC(C)C)n2c1 [Example 27, 8-[(2,6-Difluorobenzyl)oxy]-N′-isobutyl-2,6-dimethylimidazo[1,2-a]pyridine-3-carbohydrazide]	0.3
C=CCONC(=O)c1c(C)nc2c(OCc3c(F)cccc3F)cc(C)cn12 [Example 28]	0.3
CONC(=O)c1c(C)nc2c(OCc3c(F)cccc3F)cc(C)cn12 [Example 29]	1

SMILES	minimal effective concentration [µM]
Cc1cc(OCc2c(F)cccc2F)c2nc(C)c(C(=O)NN3CCN(CCO)CC3)n2c1 [Example 30]	1
Cc1cc(OCc2c(F)cccc2F)c2nc(C)c(C(=O)NNC(=O)C3CCCC3)n2c1 [Example 31]	0.3
COCC(=O)NNC(=O)c1c(C)nc2c(OCc3c(F)cccc3F)cc(C)cn12 [Example 32]	1
COCCC(=O)NNC(=O)c1c(C)nc2c(OCc3c(F)cccc3F)cc(C)cn12 [Example 33]	0.3
Cc1cc(OCc2c(F)cccc2F)c2nc(C)c(C(=O)NNc3ccc4ccccc4c3)n2c1 [Example 34]	1
Cc1cc(OCc2c(F)cccc2F)c2nc(C)c(C(=O)NNc3nnc(C(C)(C)C)s3)n2c1 [Example 35]	3
Cc1cc(OCc2c(F)cccc2F)c2nc(C)c(C(=O)NNc3cccc(Oc4ccccc4)c3)n2c1 [Example 36]	10
Cc1cc(OCc2c(F)cccc2F)c2nc(C)c(C(=O)NNC(=O)CN(C)C)n2c1 [Example 37]	0.1
Cc1cc(OCc2c(F)cccc2F)c2nc(C)c(C(=O)NNC(C)(C)C)n2c1 [Example 38]	0.3
Cc1cccc(NNC(=O)c2c(C)nc3c(OCc4c(F)cccc4F)cc(C)cn23)c1 [Example 39]	0.3
Cc1cc(OCc2c(F)cccc2F)c2nc(C)c(C(=O)NNc3ccccn3)n2c1 [Example 40]	0.3
Cc1cc(OCc2c(F)cccc2F)c2nc(C)c(C(=O)NNCC(F)(F)F)n2c1 [Example 41]	0.3
CCCCCCC(C)NNC(=O)c1c(C)nc2c(OCc3c(F)cccc3F)cc(C)cn12 (stereo not shown) [Example 42]	3
COc1cc(OC)nc(NNC(=O)c2c(C)nc3c(OCc4c(F)cccc4F)cc(C)cn23)n1 [Example 43]	0.3
CCCCCCC(CCC)NNC(=O)c1c(C)nc2c(OCc3c(F)cccc3F)cc(C)cn12 (stereo not shown) [Example 44]	3
Cc1cc(OCc2c(F)cccc2F)c2nc(C)c(C(=O)NNc3cccc(C(F)(F)F)c3)n2c1 [Example 45]	0.3
Cc1cc(OCc2c(F)cccc2F)c2nc(C)c(C(=O)NNc3ccc(Cl)cc3)n2c1 [Example 46]	0.1
Cc1cc(OCc2c(F)cccc2F)c2nc(C)c(C(=O)NNc3ccc(C(C)(C)C)cc3)n2c1 [Example 47]	3
Cc1cc(OCc2c(F)cccc2F)c2nc(C)c(C(=O)NNc3ccc(OC(F)(F)F)cc3)n2c1 [Example 48]	1
Cc1cc(OCc2c(F)cccc2F)c2nc(C)c(C(=O)NNCCc3ccccc3)n2c1 [Example 49]	1
Cc1cc(OCc2c(F)cccc2F)c2nc(C)c(C(=O)NNC(=O)c3nccs3)n2c1 [Example 50]	1
Cc1cc(OCc2c(F)cccc2F)c2nc(C)c(C(=O)NN(C)c3ccccc3)n2c1 [Example 51]	0.1
Cc1cc(OCc2c(F)cccc2F)c2nc(C)c(C(=O)NNc3ccc(Cl)c(Cl)c3)n2c1 [Example 52]	0.3

SMILES	minimal effective concentration [µM]
Cc1cc(C)cc(NNC(=O)c2c(C)nc3c(OCc4c(F)cccc4F)cc(C)cn23)c1 [Example 53]	1
Cc1cc(OCc2c(F)cccc2F)c2nc(C)c(C(=O)NNc3cccc(Br)c3)n2c1 [Example 54]	0.3
Cc1cc(OCc2c(F)cccc2F)c2nc(C)c(C(=O)NNc3ccc(F)cc3)n2c1 [Example 55]	0.1
Cc1cc(OCc2c(F)cccc2F)c2nc(C)c(C(=O)NNc3cnc4ccccc4n3)n2c1 [Example 56]	1
Cc1cc(OCc2c(F)cccc2F)c2nc(C)c(C(=O)NNc3ccnc4c(F)cccc34)n2c1 [Example 57]	1
Cc1cc(OCc2c(F)cccc2F)c2nc(C)c(C(=O)NNc3cc(Cl)c(C)cc3C)n2c1 [Example 58]	0.3
Cc1cc(OCc2c(F)cccc2F)c2nc(C)c(C(=O)NOCc3ccccc3C#N)n2c1 [Example 59]	1
Cc1cc(OCc2c(F)cccc2F)c2nc(C)c(C(=O)NNC(=O)C3CC3)n2c1 [Example 60]	1
CCNNC(=O)c1c(C)nc2c(OCc3c(F)cccc3F)cc(C)cn12 [Example 61]	10
Cc1cc(OCc2c(F)cccc2F)c2nc(C)c(C(=O)NN3CCCCCC3)n2c1 [Example 62]	0.1
CCCCNNC(=O)c1c(C)nc2c(OCc3c(F)cccc3F)cc(C)cn12 [Example 63]	3
Cc1cc(OCc2c(F)cccc2F)c2nc(C)c(C(=O)NNC3CCCC3)n2c1 [Example 64]	3
Cc1cc(OCc2c(F)cccc2F)c2nc(C)c(C(=O)NNCc3csc(C)n3)n2c1 [Example 65]	1
CSCCNNC(=O)c1c(C)nc2c(OCc3c(F)cccc3F)cc(C)cn12 [Example 66]	3
Cc1cc(OCc2c(F)cccc2F)c2nc(C)c(C(=O)NNCc3ccccc3)n2c1 [Example 67]	1
CCOC(=O)CNNC(=O)c1c(C)nc2c(OCc3c(F)cccc3F)cc(C)cn12 [Example 68]	1
Cc1cc(OCc2c(F)cccc2F)c2nc(C)c(C(=O)NNC(C)C)n2c1 [Example 69]	10
Cc1cc(OCc2c(F)cccc2F)c2nc(C)c(C(=O)NNC3CCCC3O)n2c1 (stereo not shown) [Example 70]	0.3
Cc1cc(OCc2c(F)cccc2F)c2nc(C)c(C(=O)NNC3CCS(=O)(=O)C3)n2c1 (stereo not shown) [Example 71]	1
Cc1cc(OCc2c(F)cccc2F)c2nc(C)c(C(=O)NNC3CS(=O)(=O)CC3C)n2c1 (stereo not shown) [Example 72]	3
Cc1cc(OCc2c(F)cccc2F)c2nc(C)c(C(=O)NNC3CS(=O)(=O)CC3O)n2c1 (stereo not shown) [Example 73]	3
